Results on 22 compounds are retold here after patent US8378117B2 (priority 2005, dated 2013).

Read-outs that look alike come from different tables or passages of the source.

The target in assay [1] is T1, CB2 receptor (Homo sapiens, UniProt P34972).
T1 construct: expressed in transfected cells
Briefly: Binding assay for CB2 agonists or inverse agonists (SK-N-MC membranes, [3H]-CP-55,940). The procedure:
(§1) The human CB1 and CB2 receptors were stably expressed in SK-N-MC cells transfected with pcDNA3 CB-1 (human) or pcDNA3 CB-2 (human). The cells were grown in T-180 cell culture flasks under standard cell culture conditions at 37° C. in a 5% CO2 atmosphere. The cells were harvested by trysinization and homogenized in a homogenization buffer (10 mM Tris, 0.2 mM MgCl2, 5 mM KCl, with protease inhibitors aprotinin, leupeptin, pepstatin A and bacitracin) and centrifuged (2000 g). The supernatant was then centrifuged in 2M sucrose (31,300 g) to produce a semi-purified membrane pellet. The pellet was resuspended in homogenization and stored at −80° C.
On the day of the assay, the pellet was thawed on ice and diluted in assay buffer (50 mM Tris-HCl, 5 mM MgCl2, 2.5 mM EDTA, 0.5 mg/mL fatty acid free bovine serum aldumin, pH 7.5). […] The plate was covered and incubated for 90 minutes at 30° C. The contents were then aspirated onto a Packard Unifilter GF/C filter bottom plate prewet with 0.5% polyethyleneimine. The wells of the polypropylene plate were rinsed and aspirated seven times with a 0.9% saline-0.5% Tween 20 solution. The Unifilter plate was dried, a scintillation cocktail was added to each well and the counts representing binding were quantitated in a TopCount scintillation counter.
(§2) For compounds tested, an IC50 binding value was obtained from percent inhibition studies in which various test concentrations were used. The binding value was calculated by linear regression.

In assay [2] the target is T2, CB1 receptor (Homo sapiens, UniProt P21554).
T2 construct: expressed in transfected cells
T2 sequence (P21554 whole entry): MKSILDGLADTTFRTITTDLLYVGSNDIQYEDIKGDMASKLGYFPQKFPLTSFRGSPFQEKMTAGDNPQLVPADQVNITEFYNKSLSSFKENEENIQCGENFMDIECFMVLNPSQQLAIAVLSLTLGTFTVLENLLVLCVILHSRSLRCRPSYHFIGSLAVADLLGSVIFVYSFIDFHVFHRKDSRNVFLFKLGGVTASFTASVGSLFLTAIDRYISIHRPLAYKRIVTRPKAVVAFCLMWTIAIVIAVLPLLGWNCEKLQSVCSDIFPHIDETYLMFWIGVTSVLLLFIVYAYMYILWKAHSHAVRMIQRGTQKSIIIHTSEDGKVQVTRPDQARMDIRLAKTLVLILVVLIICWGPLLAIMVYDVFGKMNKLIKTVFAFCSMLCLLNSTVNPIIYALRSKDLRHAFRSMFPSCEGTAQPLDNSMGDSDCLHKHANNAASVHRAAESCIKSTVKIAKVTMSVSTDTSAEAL
The assay is described as follows: Binding assay for CB1 agonists or inverse agonists (SK-N-MC membranes, [3H]-CP-55,940). The conditions noted are these: for IC50: Cannabinoid CB1 Receptor Binding IC50, calculated by linear regression from percent inhibition at various test concentrations. The protocol:
as §1
On the day of the assay, the pellet was thawed on ice and diluted in assay buffer (50 mM Tris-HCl, 5 mM MgCl2, 2.5 mM EDTA, 0.5 mg/mL fatty acid free bovine serum aldumin, pH 7.5). The diluted membrane pellet was added with buffer, either a test compound or vehicle standard and the radioligand […] ([…]) to the wells of a 96-well polypropylene plate. Non-specific binding was measured in wells containing WIN 55,212 (10 uM). The plate was covered and incubated for 90 minutes at 30° C. The contents were then aspirated onto a Packard Unifilter GF/C filter bottom plate prewet with 0.5% polyethyleneimine. The wells of the polypropylene plate were rinsed and aspirated seven times with a 0.9% saline-0.5% Tween 20 solution. The Unifilter plate was dried, a scintillation cocktail was added to each well and the counts representing binding were quantitated in a TopCount scintillation counter.
as §2

The mark [3] stands for this setting: read-out: CB1 receptor binding percent inhibition, test concentration 1 μM (footnote 1).

T1 sequence (P34972 whole entry): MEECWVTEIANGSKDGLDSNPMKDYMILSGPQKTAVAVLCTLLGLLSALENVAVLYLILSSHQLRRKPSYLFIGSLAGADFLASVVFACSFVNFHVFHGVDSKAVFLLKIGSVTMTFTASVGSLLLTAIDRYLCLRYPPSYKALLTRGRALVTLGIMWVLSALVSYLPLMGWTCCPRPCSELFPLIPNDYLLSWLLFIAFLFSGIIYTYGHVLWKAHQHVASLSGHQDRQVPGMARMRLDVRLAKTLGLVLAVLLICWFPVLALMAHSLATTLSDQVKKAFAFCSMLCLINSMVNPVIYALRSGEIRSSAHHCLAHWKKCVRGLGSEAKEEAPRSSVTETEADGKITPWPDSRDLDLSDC

As for `O=C(NC1CC1)c1nn(C2CCCCC2)c2c1CCCCC2Cc1cccc(Cl)c1` (stereo not drawn) [Cpd 32, 8-(3-chloro-benzyl)-1-cyclohexyl-1,4,5,6,7,8-hexahydro-cycloheptapyrazole-3-carboxylic acid cyclopropylamide], the “CB2 receptor binding percent inhibition” value in assay [1] (test concentration not stated) is listed as 0%. For the same compound, the inhibition at 1 µM in assay [2] (setting [3]) was 0%.

Turning to `O=C(NC1CC1)c1nn(C2CCCCC2)c2c1CCCCC2Cc1ccc(Cl)cc1` (stereo not drawn) [Cpd 33, 8-(4-chloro-benzyl)-1-cyclohexyl-1,4,5,6,7,8-hexahydro-cycloheptapyrazole-3-carboxylic acid cyclopropylamide], the “CB2 receptor binding percent inhibition” value in assay [1] (test concentration not stated) is given as 0%. Moreover, the inhibition at 1 µM in assay [2] (setting [3]) was 0%.

As to `O=C(NC1CC1)c1nn(Cc2ccc(Cl)cc2)c2c1CCCCC2Cc1ccc(Cl)cc1` (stereo not drawn) [Cpd 34, 1,8-bis-(4-chloro-benzyl)-1,4,5,6,7,8-hexahydro-cycloheptapyrazole-3-carboxylic acid cyclopropylamide], the “CB2 receptor binding percent inhibition” value in assay [1] (test concentration not stated) worked out at 0%. For the same compound, the inhibition at 1 µM in assay [2] (setting [3]) was determined as 0%.

For `O=C(NC1CC1)c1nn(Cc2ccc(Cl)cc2)c2c1CCCCC2Cc1cccc(Cl)c1` (stereo not drawn) [Cpd 35, 1-(4-chloro-benzyl)-8-(3-chloro-benzyl)-1,4,5,6,7,8-hexahydro-cycloheptapyrazole-3-carboxylic acid cyclopropylamide], the “CB2 receptor binding percent inhibition” value in assay [1] (test concentration not stated) amounted to 36%. Besides, the inhibition at 1 µM in assay [2] (setting [3]) was 22%.

On to `O=C(NC1CCC1)c1nn(C2CCCCC2)c2c1CCCCC2Cc1cccc(Cl)c1` (stereo not drawn) [Cpd 36, 8-(3-chloro-benzyl)-1-cyclohexyl-1,4,5,6,7,8-hexahydro-cycloheptapyrazole-3-carboxylic acid cyclobutylamide], for which, in assay [1] (test concentration not stated), the “CB2 receptor binding percent inhibition” value is given as 0%. Further, the inhibition at 1 µM in assay [2] (setting [3]) was 25%.

For the compound `O=C(NC1CCC1)c1nn(C2CCCCC2)c2c1CCCCC2Cc1ccc(Cl)cc1` (stereo not drawn) [Cpd 37, 8-(4-chloro-benzyl)-1-cyclohexyl-1,4,5,6,7,8-hexahydro-cycloheptapyrazole-3-carboxylic acid cyclobutylamide], the “CB2 receptor binding percent inhibition” value in assay [1] (test concentration not stated) amounted to 10%. In addition, the inhibition at 1 µM in assay [2] (setting [3]) stood at 15%.

On to `O=C(NC1CC1)c1nn(-c2ccc(Cl)cc2Cl)c2c1CCCCC2Cc1ccc(Cl)cc1` (stereo not drawn) [Cpd 38, 8-(4-chloro-benzyl)-1-(2,4-dichloro-phenyl)-1,4,5,6,7,8-hexahydro-cycloheptapyrazole-3-carboxylic acid cyclopropylamide], for which the “CB2 receptor binding percent inhibition” value in assay [1] (test concentration not stated) is listed as 0%. In addition, the inhibition at 1 µM in assay [2] (setting [3]) was 39%.

Consider `Cn1nc(C(=O)NC2CCC2)c2c1C(Cc1ccccc1Cl)CCCC2` (stereo not drawn) [Cpd 39, 8-(2-chloro-benzyl)-1-methyl-1,4,5,6,7,8-hexahydro-cycloheptapyrazole-3-carboxylic acid cyclobutylamide], for which, in assay [1] (test concentration not stated), the “CB2 receptor binding percent inhibition” value is 30%. For the same compound, in assay [2] (setting [3]), the inhibition at 1 µM was 0%.

Consider `O=C(NC1CCC1)c1nn(C2CCCCC2)c2c1CCCCC2Cc1cccc(F)c1` (stereo not drawn) [Cpd 43, 1-cyclohexyl-8-(3-fluoro-benzyl)-1,4,5,6,7,8-hexahydro-cycloheptapyrazole-3-carboxylic acid cyclobutylamide], for which the “CB2 receptor binding percent inhibition” value in assay [1] (test concentration not stated) amounted to 42%. Further, the inhibition at 1 µM in assay [2] (setting [3]) stood at 14%.

As usually defined, the IC50 is the midpoint of a concentration-inhibition curve. `CC12CCC(C1)C(C)(C)[C@H]2NC(=O)c1nn(C2CCCCC2)c2c1CCCCC2Cc1cccc(F)c1` (stereo partly drawn) [Cpd 44, 1-cyclohexyl-8-(3-fluoro-benzyl)-1,4,5,6,7,8-hexahydro-cycloheptapyrazole-3-carboxylic acid [(2S)-1,3,3-trimethyl-bicyclo[2.2.1]hept-2-yl]-amide]: the IC50 in assay [1] (calculated by linear regression from percent inhibition at various test concentrations, read-out: Cannabinoid CB2 Receptor Binding IC50) was 600 nM; in assay [2], 200 nM. The inhibition at 1 µM in assay [1] (test concentration 1 μM (footnote 1), read-out: CB2 receptor binding percent inhibition) amounted to 75%; in assay [2] (read-out: CB1 receptor binding percent inhibition) it was 82%.

In the case of `CC(C)(C)OC(=O)N1CCC(NC(=O)c2nn(C3CCCCC3)c3c2CCCCC3Cc2cccc(F)c2)CC1` (stereo not drawn) [Cpd 46, 4-{[1-cyclohexyl-8-(3-fluoro-benzyl)-1,4,5,6,7,8-hexahydro-cycloheptapyrazole-3-carbonyl]-amino}-piperidine-1-carboxylic acid tert-butyl ester], in assay [1] (test concentration not stated), the “CB2 receptor binding percent inhibition” value is reported as 0%. In assay [2] (setting [3]), the inhibition at 1 µM is 45%.

In the case of `CC12CCC(C1)C(C)(C)[C@H]2NC(=O)c1nn(Cc2ccccc2)c2c1CCCCC2c1ccccc1` (stereo partly drawn) [Cpd 47, 1-benzyl-8-phenyl-1,4,5,6,7,8-hexahydro-cycloheptapyrazole-3-carboxylic acid [(2S)-1,3,3-trimethyl-bicyclo[2.2.1]hept-2-yl]-amide], the IC50 in assay [1] (Cannabinoid CB2 Receptor Binding IC50, calculated by linear regression from percent inhibition at various test concentrations) was 30 nM; in assay [2], 100 nM. Moreover, the “CB2 receptor binding percent inhibition” value in assay [1] (test concentration 1 μM (footnote 1)) stood at 94%. Besides, the inhibition at 1 µM in assay [2] (setting [3]) came out at 91%.

In the case of `O=C(NC1CC1)c1nn(C2CCCCC2)c2c1CCCCC2Cc1cccc(F)c1` (stereo not drawn) [Cpd 49, 1-cyclohexyl-8-(3-fluoro-benzyl)-1,4,5,6,7,8-hexahydro-cycloheptapyrazole-3-carboxylic acid cyclopropylamide], in assay [1] (test concentration not stated), the “CB2 receptor binding percent inhibition” value is 9%. Further, the inhibition at 1 µM in assay [2] (setting [3]) is 33%.

As for `O=C(NN1CCCCC1)c1nn(C2CCCCC2)c2c1CCCCC2Cc1cccc(F)c1` (stereo not drawn) [Cpd 50, 1-cyclohexyl-8-(3-fluoro-benzyl)-1,4,5,6,7,8-hexahydro-cycloheptapyrazole-3-carboxylic acid piperidin-1-ylamide], the “CB2 receptor binding percent inhibition” value in assay [1] (test concentration not stated) came out at 31%. In addition, the inhibition at 1 µM in assay [2] (setting [3]) worked out at 32%.

In the case of `O=C(NC1CCCCC1)c1nn(C2CCCCC2)c2c1CCCCC2Cc1cccc(F)c1` (stereo not drawn) [Cpd 51, 1-cyclohexyl-8-(3-fluoro-benzyl)-1,4,5,6,7,8-hexahydro-cycloheptapyrazole-3-carboxylic acid cyclohexylamide], the “CB2 receptor binding percent inhibition” value in assay [1] (test concentration not stated) turned out to be 30%. In assay [2] (setting [3]), the inhibition at 1 µM stood at 36%.

Take `O=C(NC1CCCC1)c1nn(C2CCCCC2)c2c1CCCCC2Cc1cccc(F)c1` (stereo not drawn) [Cpd 52, 1-cyclohexyl-8-(3-fluoro-benzyl)-1,4,5,6,7,8-hexahydro-cycloheptapyrazole-3-carboxylic acid cyclopentylamide]: the “CB2 receptor binding percent inhibition” value in assay [1] (test concentration not stated) turned out to be 21%. The inhibition at 1 µM in assay [2] (setting [3]) was found to be 26%.

`O=C(NCc1ccccc1)c1nn(C2CCCCC2)c2c1CCCCC2Cc1cccc(F)c1` (stereo not drawn) [Cpd 53, 1-cyclohexyl-8-(3-fluoro-benzyl)-1,4,5,6,7,8-hexahydro-cycloheptapyrazole-3-carboxylic acid benzylamide]: in assay [1] (test concentration not stated), the “CB2 receptor binding percent inhibition” value worked out at 52%. Moreover, the inhibition at 1 µM in assay [2] (setting [3]) amounted to 33%.

For `O=C(c1nn(C2CCCCC2)c2c1CCCCC2Cc1cccc(F)c1)N1CCN(c2ccccc2)CC1` (stereo not drawn) [Cpd 54, [1-cyclohexyl-8-(3-fluoro-benzyl)-1,4,5,6,7,8-hexahydro-cycloheptapyrazol-3-yl]-(4-phenyl-piperazin-1-yl)-methanone], the “CB2 receptor binding percent inhibition” value in assay [1] (test concentration not stated) is 41%. Besides, the inhibition at 1 µM in assay [2] (setting [3]) was determined as 18%.

For `O=C(NC1CC1)c1nn(C2CCCCC2)c2c1CCCCC2Cc1ccc(F)cc1` (stereo not drawn) [Cpd 56, 1-cyclohexyl-8-(4-fluoro-benzyl)-1,4,5,6,7,8-hexahydro-cycloheptapyrazole-3-carboxylic acid cyclopropylamide], in assay [1] (test concentration not stated), the “CB2 receptor binding percent inhibition” value is reported as 42%. Besides, the inhibition at 1 µM in assay [2] (setting [3]) was found to be 0%.

Take `O=C(NC1CCC1)c1nn(C2CCCCC2)c2c1CCCCC2Cc1ccc(F)cc1` (stereo not drawn) [Cpd 57, 1-cyclohexyl-8-(4-fluoro-benzyl)-1,4,5,6,7,8-hexahydro-cycloheptapyrazole-3-carboxylic acid cyclobutylamide]: in assay [1] (test concentration not stated), the “CB2 receptor binding percent inhibition” value worked out at 29%. Moreover, in assay [2] (setting [3]), the inhibition at 1 µM is 35%.

Turning to `O=C(NC1CCCC1)c1nn(C2CCCCC2)c2c1CCCCC2Cc1ccc(F)cc1` (stereo not drawn) [Cpd 59, 1-cyclohexyl-8-(4-fluoro-benzyl)-1,4,5,6,7,8-hexahydro-cycloheptapyrazole-3-carboxylic acid cyclopentylamide], in assay [1] (test concentration not stated), the “CB2 receptor binding percent inhibition” value was 60%. Besides, in assay [2] (setting [3]), the inhibition at 1 µM stood at 27%.

For `O=C(c1nn(C2CCCCC2)c2c1CCCCC2Cc1ccc(F)cc1)N1CCN(c2ccccc2)CC1` (stereo not drawn) [Cpd 60, [1-cyclohexyl-8-(4-fluoro-benzyl)-1,4,5,6,7,8-hexahydro-cycloheptapyrazol-3-yl]-(4-phenyl-piperazin-1-yl)-methanone], the “CB2 receptor binding percent inhibition” value in assay [1] (test concentration not stated) was 38%. The inhibition at 1 µM in assay [2] (setting [3]) stood at 38%.
